Measurements from US20240245682A1, “ALPHA-V-BETA-8 INTEGRIN INHIBITORS AND USES THEREOF” (Pliant Therapeutics, Inc., priority 2022, published 2024).

Key:
Test in all cases: AlphaScreen proximity-based integrin binding assay with TGF-b1 LAP
Conditions in all cases: values given as ranges
human integrin αVβ6 = human integrin αVβ6 (Homo sapiens, UniProt P06756+P18564)
Procedure: (§1) The biochemical potency of the disclosed compounds was determined using the AlphaScreen® (Perkin Elmer, Waltham, MA) proximity-based assay as described previously (Ullman E F et al., Luminescent oxygen channeling immunoassay: Measurement of particle binding kinetics by chemiluminescence. Proc. Natl. Acad. Sci. USA, Vol. 91, pp. 5426-5430, June 1994, herein incorporated by reference in its entirety). To gauge the potency of inhibitors of binding to each of human integrins αVβ1, αVβ6, and αVβ8, inhibitor compounds were independently incubated with one of αVβ1, αVβ6, or αVβ8, together with TGF-b1 LAP and biotinylated anti-LAP antibody plus acceptor and donor beads, following the manufacture's recommendations. The donor beads were coated with streptavidin. […] All incubations occurred at room temperatures in 50 mM Tris-HCl, pH 7.5, 0.1% BSA supplemented with 1 mM each CaCl2 and MgCl2.
(§2) The order of reagent addition was as follows:
(§3) 1. αVβ1, αVβ6, or αVβ8 integrin, test inhibitor compound, LAP, biotinylated anti-LAP antibody and acceptor beads were all added together.
(§4) 2. After 2 hours, donor beads were added. After another 30 minute incubation, samples were then read.
(§5) Integrin binding was evaluated by exciting donor beads at 680 nm, and measuring the fluorescent signal produced, between 520-620 nm, using a Biotek Instruments (Winooski, VT, USA) SynergyNeo2 multimode plate reader. Compound potency was assessed by determining inhibitor concentrations required to reduce fluorescent light output by 50%. Data analysis for IC50 determinations was carried out by nonlinear four parameter logistic regression analysis using Dotmatics ELN Software (Core Informatics Inc., Branford, Ct). […] Comp #in the Table and Examples below refers to the compound of the corresponding Example number as described in the Synthetic Examples.

human integrin αVβ8 = human integrin αVβ8 (Homo sapiens, UniProt P06756+P26012)
human integrin αVβ8, sequence (P06756 31-992 limits assumed): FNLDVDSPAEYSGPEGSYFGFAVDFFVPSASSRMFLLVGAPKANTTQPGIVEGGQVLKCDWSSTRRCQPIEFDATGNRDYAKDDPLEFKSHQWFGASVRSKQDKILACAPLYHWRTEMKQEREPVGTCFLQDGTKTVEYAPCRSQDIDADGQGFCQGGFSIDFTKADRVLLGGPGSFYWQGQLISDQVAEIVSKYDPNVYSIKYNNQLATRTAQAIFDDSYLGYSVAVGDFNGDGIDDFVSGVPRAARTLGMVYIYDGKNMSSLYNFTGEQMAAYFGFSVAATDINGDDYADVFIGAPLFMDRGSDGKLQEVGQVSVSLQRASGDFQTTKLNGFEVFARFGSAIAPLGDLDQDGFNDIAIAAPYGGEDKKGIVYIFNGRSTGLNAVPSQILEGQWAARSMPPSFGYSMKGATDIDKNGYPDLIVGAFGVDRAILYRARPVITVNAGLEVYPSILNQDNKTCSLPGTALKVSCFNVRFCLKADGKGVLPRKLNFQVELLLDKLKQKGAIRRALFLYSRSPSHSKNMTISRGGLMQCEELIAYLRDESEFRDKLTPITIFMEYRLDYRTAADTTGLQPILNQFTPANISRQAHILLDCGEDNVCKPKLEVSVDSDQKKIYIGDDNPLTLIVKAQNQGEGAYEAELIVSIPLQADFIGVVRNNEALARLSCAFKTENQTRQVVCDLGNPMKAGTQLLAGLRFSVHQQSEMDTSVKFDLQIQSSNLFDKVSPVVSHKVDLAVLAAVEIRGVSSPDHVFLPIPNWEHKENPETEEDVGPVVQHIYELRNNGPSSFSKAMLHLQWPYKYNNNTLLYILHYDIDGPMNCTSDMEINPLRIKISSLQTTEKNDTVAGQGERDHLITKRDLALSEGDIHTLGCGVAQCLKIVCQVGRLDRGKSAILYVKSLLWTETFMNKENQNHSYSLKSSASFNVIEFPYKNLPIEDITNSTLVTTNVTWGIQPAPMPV
human integrin αVβ8, sequence (P26012 43-684 limits assumed): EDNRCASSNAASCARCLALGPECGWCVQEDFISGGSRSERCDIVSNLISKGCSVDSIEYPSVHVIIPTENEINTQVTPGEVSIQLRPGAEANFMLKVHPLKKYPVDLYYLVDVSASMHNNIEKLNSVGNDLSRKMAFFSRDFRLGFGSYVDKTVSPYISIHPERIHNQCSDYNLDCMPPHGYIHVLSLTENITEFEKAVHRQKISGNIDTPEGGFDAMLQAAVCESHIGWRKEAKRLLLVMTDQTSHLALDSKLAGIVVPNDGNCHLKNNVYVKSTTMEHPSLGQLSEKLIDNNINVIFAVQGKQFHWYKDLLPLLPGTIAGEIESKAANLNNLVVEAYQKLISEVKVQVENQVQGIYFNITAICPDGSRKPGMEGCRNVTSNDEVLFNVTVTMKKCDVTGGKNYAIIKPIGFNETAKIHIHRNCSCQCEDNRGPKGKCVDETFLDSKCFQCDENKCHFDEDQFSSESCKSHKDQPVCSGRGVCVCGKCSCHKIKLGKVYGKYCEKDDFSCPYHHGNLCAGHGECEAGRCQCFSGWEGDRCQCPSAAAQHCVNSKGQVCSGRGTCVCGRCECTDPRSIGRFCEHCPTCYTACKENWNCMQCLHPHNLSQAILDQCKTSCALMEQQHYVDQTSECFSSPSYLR
Procedure: as §1, §2, §3, §4, §5

human integrin αVβ1 = human integrin αVβ1 (Homo sapiens, UniProt P05556+P06756)
human integrin αVβ1, sequence (P06756 31-992 limits assumed): as the sequence (P06756 31-992 limits assumed) above
human integrin αVβ1, sequence (P05556 21-728 limits assumed): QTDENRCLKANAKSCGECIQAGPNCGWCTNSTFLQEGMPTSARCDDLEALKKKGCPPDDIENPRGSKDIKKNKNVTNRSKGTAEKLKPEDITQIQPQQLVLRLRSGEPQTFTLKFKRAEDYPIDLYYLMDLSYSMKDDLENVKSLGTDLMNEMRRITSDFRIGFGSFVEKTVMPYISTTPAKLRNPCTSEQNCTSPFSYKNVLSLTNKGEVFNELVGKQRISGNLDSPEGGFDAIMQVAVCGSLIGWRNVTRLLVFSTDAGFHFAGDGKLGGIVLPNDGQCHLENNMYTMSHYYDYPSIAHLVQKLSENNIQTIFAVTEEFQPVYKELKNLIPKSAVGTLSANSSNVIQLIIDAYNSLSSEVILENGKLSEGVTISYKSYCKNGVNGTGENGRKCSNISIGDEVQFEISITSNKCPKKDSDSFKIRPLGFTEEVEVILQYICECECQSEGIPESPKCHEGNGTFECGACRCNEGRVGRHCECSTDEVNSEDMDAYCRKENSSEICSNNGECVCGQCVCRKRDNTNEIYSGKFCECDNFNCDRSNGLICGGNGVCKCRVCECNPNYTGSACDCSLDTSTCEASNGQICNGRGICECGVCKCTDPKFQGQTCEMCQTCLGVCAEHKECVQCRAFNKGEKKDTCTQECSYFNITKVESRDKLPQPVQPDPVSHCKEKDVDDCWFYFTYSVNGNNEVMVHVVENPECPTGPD
Procedure: as §1, §2, §3, §4, §5

human integrin αVβ6, sequence (P06756 31-992 limits assumed): as the sequence (P06756 31-992 limits assumed) above
human integrin αVβ6, sequence (P18564 22-707 limits assumed): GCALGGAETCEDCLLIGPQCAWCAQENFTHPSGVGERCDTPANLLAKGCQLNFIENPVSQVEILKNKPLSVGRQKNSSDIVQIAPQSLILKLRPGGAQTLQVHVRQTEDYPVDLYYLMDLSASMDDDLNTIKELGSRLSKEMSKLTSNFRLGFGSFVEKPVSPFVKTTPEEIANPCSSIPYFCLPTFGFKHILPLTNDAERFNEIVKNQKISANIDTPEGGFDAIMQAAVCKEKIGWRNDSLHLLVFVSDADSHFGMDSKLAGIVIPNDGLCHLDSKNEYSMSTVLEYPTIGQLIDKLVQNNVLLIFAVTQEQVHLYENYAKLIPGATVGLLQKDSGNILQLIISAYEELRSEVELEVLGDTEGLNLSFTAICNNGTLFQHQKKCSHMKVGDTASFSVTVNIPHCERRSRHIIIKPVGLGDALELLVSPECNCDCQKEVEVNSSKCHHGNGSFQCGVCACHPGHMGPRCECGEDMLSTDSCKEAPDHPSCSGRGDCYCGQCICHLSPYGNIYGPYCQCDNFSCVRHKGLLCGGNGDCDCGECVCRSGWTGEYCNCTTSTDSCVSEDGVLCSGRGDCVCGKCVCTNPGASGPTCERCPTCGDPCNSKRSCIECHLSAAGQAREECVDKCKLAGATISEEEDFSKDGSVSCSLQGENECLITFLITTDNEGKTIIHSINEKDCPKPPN

IC50 (human integrin αVβ6) [µM] | IC50 (human integrin αVβ8) [µM] | IC50 (human integrin αVβ1) [µM] | SMILES
0.25 to 0.5 | < 0.05 | < 0.05 | N#Cc1cccc(F)c1C1(C(=O)N[C@@H](CCOCCCCc2ccc3c(n2)NCCC3)C(=O)O)CC1 [Compound 37, N-(1-(2-cyano-6-fluorophenyl)cyclopropane-1-carbonyl)-O-(4-(5,6,7,8-tetrahydro-1,8-naphthyridin-2-yl)butyl)-L-homoserine]
≥ 0.5 | < 0.05 | < 0.05 | O=C(O)[C@H](CCOCCCCc1ccc2c(n1)NCCC2)NC(=O)C1(c2c(Cl)cn[nH]c2=O)CC1 [Compound 76, N-(1-(5-chloro-3-oxo-2,3-dihydropyridazin-4-yl)cyclopropane-1-carbonyl)-O-(4-(5,6,7,8-tetrahydro-1,8-naphthyridin-2-yl)butyl)-L-homoserine]
≥ 0.5 | 0.05 to 0.15 | 0.05 to 0.15 | COc1ncccc1C1(C(=O)N[C@@H](CCOCCCCc2ccc3c(n2)NCCC3)C(=O)O)CC1 [Compound 35, N-(1-(2-methoxypyridin-3-yl)cyclopropane-1-carbonyl)-O-(4-(5,6,7,8-tetrahydro-1,8-naphthyridin-2-yl)butyl)-L-homoserine]
> 0.5 | < 0.05 | < 0.05 | Cc1ncnc(Cl)c1C1(C(=O)NC(CCOCCCCc2ccc3c(n2)NCCC3)C(=O)O)CC1 (stereo not drawn) [Compound 101, N-(1-(4-chloro-6-methylpyrimidin-5-yl)cyclopropane-1-carbonyl)-O-(4-(5,6,7,8-tetrahydro-1,8-naphthyridin-2-yl)butyl)homoserine]
≥ 0.5 | < 0.05 | < 0.05 | Cn1ncc(Cl)c1C1(C(=O)N[C@@H](CCOCCCCc2ccc3c(n2)NCCC3)C(=O)O)CC1 [Compound 51, N-(1-(4-chloro-1-methyl-1H-pyrazol-5-yl)cyclopropane-1-carbonyl)-O-(4-(5,6,7,8-tetrahydro-1,8-naphthyridin-2-yl)butyl)-L-homoserine]
≥ 0.5 | < 0.05 | < 0.05 | O=C(O)[C@H](CCOCCCCc1ccc2c(n1)NCCC2)NC(=O)C1(c2[nH]c(=O)ccc2Cl)CC1 [Compound 66, N-(1-(3-chloro-6-oxo-1,6-dihydropyridin-2-yl)cyclopropane-1-carbonyl)-O-(4-(5,6,7,8-tetrahydro-1,8-naphthyridin-2-yl)butyl)-L-homoserine]
≥ 0.5 | 0.05 to 0.15 | < 0.05 | O=C(O)[C@H](CCOCCCCc1ccc2c(n1)NCCC2)NC(=O)C1(c2cnccn2)CC1 [Compound 11, N-(1-(pyrazin-2-yl)cyclopropane-1-carbonyl)-O-(4-(5,6,7,8-tetrahydro-1,8-naphthyridin-2-yl)butyl)-L-homoserine]
0.25 to 0.5 | < 0.05 | < 0.05 | O=C(O)[C@H](CCOCCCCc1ccc2c(n1)NCCC2)NC(=O)C1(C(F)(F)F)CCCCC1 [Compound 84, O-(4-(5,6,7,8-tetrahydro-1,8-naphthyridin-2-yl)butyl)-N-(1-(trifluoromethyl)cyclohexane-1-carbonyl)-L-homoserine]
≥ 0.5 | < 0.05 | < 0.05 | O=C(O)[C@H](CCOCCCCc1ccc2c(n1)NCCC2)NC(=O)C1(c2c(Cl)cc[nH]c2=O)CC1 [Compound 68, N-(1-(4-chloro-2-oxo-1,2-dihydropyridin-3-yl)cyclopropane-1-carbonyl)-O-(4-(5,6,7,8-tetrahydro-1,8-naphthyridin-2-yl)butyl)-L-homoserine]
> 0.5 | < 0.05 | < 0.05 | O=C(O)[C@H](CCOCCCCc1ccc2c(n1)NCCC2)NC(=O)C1(C(F)(F)F)CCN(CC(F)(F)F)CC1 [Compound 96, O-(4-(5,6,7,8-tetrahydro-1,8-naphthyridin-2-yl)butyl)-N-(1-(2,2,2-trifluoroethyl)-4-(trifluoromethyl)piperidine-4-carbonyl)-L-homoserine]
> 0.5 | < 0.05 | 0.05 to 0.15 | O=C(O)[C@H](CCOCCCCc1ccc2c(n1)NCCC2)NC(=O)C1(n2c(=O)ccc3ccccc32)CC1 [Compound 90, N-(1-(2-oxoquinolin-1(2H)-yl)cyclopropane-1-carbonyl)-O-(4-(5,6,7,8-tetrahydro-1,8-naphthyridin-2-yl)butyl)-L-homoserine]
≥ 0.5 | < 0.05 | < 0.05 | O=C(O)[C@H](CCOCCCCc1ccc2c(n1)NCCC2)NC(=O)C1(c2ncccc2OC(F)F)CC1 [Compound 38, N-(1-(3-(difluoromethoxy)pyridin-2-yl)cyclopropane-1-carbonyl)-O-(4-(5,6,7,8-tetrahydro-1,8-naphthyridin-2-yl)butyl)-L-homoserine]
≥ 0.5 | < 0.05 | < 0.05 | Cc1nccnc1C1(C(=O)N[C@@H](CCOCCCCc2ccc3c(n2)NCCC3)C(=O)O)CC1 [Compound 42, N-(1-(3-methylpyrazin-2-yl)cyclopropane-1-carbonyl)-O-(4-(5,6,7,8-tetrahydro-1,8-naphthyridin-2-yl)butyl)-L-homoserine]
≥ 0.5 | < 0.05 | < 0.05 | O=C(O)[C@H](CCOCCCCc1ccc2c(n1)NCCC2)NC(=O)C1(c2ncc(F)cc2Cl)CC1 [Compound 14, N-(1-(3-chloro-5-fluoropyridin-2-yl)cyclopropane-1-carbonyl)-O-(4-(5,6,7,8-tetrahydro-1,8-naphthyridin-2-yl)butyl)-L-homoserine]
≥ 0.5 | < 0.05 | < 0.05 | COc1ncnc(C)c1C1(C(=O)N[C@@H](CCOCCCCc2ccc3c(n2)NCCC3)C(=O)O)CC1 [Compound 61, N-(1-(4-methoxy-6-methylpyrimidin-5-yl)cyclopropane-1-carbonyl)-O-(4-(5,6,7,8-tetrahydro-1,8-naphthyridin-2-yl)butyl)-L-homoserine]
≥ 0.5 | < 0.05 | < 0.05 | O=C(O)[C@H](CCOCCCCc1ccc2c(n1)NCCC2)NC(=O)C1(c2ccccc2Cl)CC1 [Compound 6, N-(1-(2-chlorophenyl)cyclopropane-1-carbonyl)-O-(4-(5,6,7,8-tetrahydro-1,8-naphthyridin-2-yl)butyl)-L-homoserine]
≥ 0.5 | < 0.05 | < 0.05 | Cn1cc(C#N)c(C2(C(=O)N[C@@H](CCOCCCCc3ccc4c(n3)NCCC4)C(=O)O)CC2)n1 [Compound 75, N-(1-(4-cyano-1-methyl-1H-pyrazol-3-yl)cyclopropane-1-carbonyl)-O-(4-(5,6,7,8-tetrahydro-1,8-naphthyridin-2-yl)butyl)-L-homoserine]
> 0.5 | 0.05 to 0.15 | 0.05 to 0.15 | NC(=O)c1cccc(F)c1C1(C(=O)N[C@@H](CCOCCCCc2ccc3c(n2)NCCC3)C(=O)O)CC1 [Compound 95, N-(1-(2-carbamoyl-6-fluorophenyl)cyclopropane-1-carbonyl)-O-(4-(5,6,7,8-tetrahydro-1,8-naphthyridin-2-yl)butyl)-L-homoserine]
≥ 0.5 | < 0.05 | < 0.05 | O=C(O)[C@H](CCOCCCCc1ccc2c(n1)NCCC2)NC(=O)C1(n2c(Cl)cccc2=O)CC1 [Compound 65, N-(1-(6-chloro-2-oxopyridin-1(2H)-yl)cyclopropane-1-carbonyl)-O-(4-(5,6,7,8-tetrahydro-1,8-naphthyridin-2-yl)butyl)-L-homoserine]
≥ 0.5 | < 0.05 | < 0.05 | Cc1ccncc1C1(C(=O)N[C@@H](CCOCCCCc2ccc3c(n2)NCCC3)C(=O)O)CC1 [Compound 16, N-(1-(4-methylpyridin-3-yl)cyclopropane-1-carbonyl)-O-(4-(5,6,7,8-tetrahydro-1,8-naphthyridin-2-yl)butyl)-L-homoserine]
≥ 0.5 | < 0.05 | < 0.05 | O=C(O)[C@H](CCOCCCCc1ccc2c(n1)NCCC2)NC(=O)C1(c2ccccc2F)CC1 [Compound 9, N-(1-(2-fluorophenyl)cyclopropane-1-carbonyl)-O-(4-(5,6,7,8-tetrahydro-1,8-naphthyridin-2-yl)butyl)-L-homoserine]
≥ 0.5 | < 0.05 | < 0.05 | COc1ncc(F)cc1C1(C(=O)N[C@@H](CCOCCCCc2ccc3c(n2)NCCC3)C(=O)O)CC1 [Compound 33, N-(1-(5-fluoro-2-methoxypyridin-3-yl)cyclopropane-1-carbonyl)-O-(4-(5,6,7,8-tetrahydro-1,8-naphthyridin-2-yl)butyl)-L-homoserine]
≥ 0.5 | ≥ 0.5 | 0.05 to 0.15 | O=C(O)[C@H](CCOCCCCc1ccc2c(n1)NCCC2)NC(=O)C1(c2ncccn2)CC1 [Compound 12, N-(1-(pyrimidin-2-yl)cyclopropane-1-carbonyl)-O-(4-(5,6,7,8-tetrahydro-1,8-naphthyridin-2-yl)butyl)-L-homoserine]
